Source: US9469650B2, “Melampomagnolide B derivatives” (BOARD OF TRUSTEES OF THE UNIVERSITY OF ARKANSAS, priority 2013, dated 2016)

Experiments:
HCT-116 = test: panel of 60 human tumor cell lines, growth inhibition (Colon Cancer); details: for Percent Growth: HCT-116
A549/ATCC = test: panel of 60 human tumor cell lines, growth inhibition (Non-Small Cell Lung Cancer); details: for Percent Growth: A549/ATCC
SF-268 = test: panel of 60 human tumor cell lines, growth inhibition (CNS Cancer)
NCI-H322M = test: panel of 60 human tumor cell lines, growth inhibition (Non-Small Cell Lung Cancer)
UACC-257 = test: panel of 60 human tumor cell lines, growth inhibition (Melanoma)
SW-620 = test: panel of 60 human tumor cell lines, growth inhibition (Colon Cancer); details: for Percent Growth: SW-620
NCI-H522 = test: panel of 60 human tumor cell lines, growth inhibition (Non-Small Cell Lung Cancer)
HS 578T = test: panel of 60 human tumor cell lines, growth inhibition (Breast Cancer); details: for Percent Growth: HS 578T
TK-10 = test: panel of 60 human tumor cell lines, growth inhibition (Renal Cancer); details: for Percent Growth: TK-10
OVCAR-5 = test: panel of 60 human tumor cell lines, growth inhibition (Ovarian Cancer)
SF-295 = test: panel of 60 human tumor cell lines, growth inhibition (CNS Cancer)
HCT-15 = test: panel of 60 human tumor cell lines, growth inhibition (Colon Cancer)
BT-549 = test: panel of 60 human tumor cell lines, growth inhibition (Breast Cancer)
OVCAR-3 = test: panel of 60 human tumor cell lines, growth inhibition (Ovarian Cancer)
T-47D = test: panel of 60 human tumor cell lines, growth inhibition (Breast Cancer); details: for Percent Growth: T-47D
SNB-75 = test: panel of 60 human tumor cell lines, growth inhibition (CNS Cancer)

Compound: C=C1C(=O)O[C@H]2[C@H]1CC/C(COC(=O)CCC(=O)NCc1ccc(Cl)nc1)=C\CC[C@@]1(C)O[C@@H]21 [JVM 96]
- Percent Growth (HCT-116; Log10 Concentration −4.0): −100%
- Percent Growth (HCT-116; Log10 Concentration −5.0): 13%
- Percent Growth (HCT-116; Log10 Concentration −6.0): 97%
- Percent Growth (HCT-116; Log10 Concentration −7.0): 93%
- Percent Growth (HCT-116; Log10 Concentration −8.0): 97%
- GI50 (HCT-116; Homo sapiens, HCT-116, HCT-116): 3.62 µM
- CC50 (HCT-116; Homo sapiens, HCT-116, read-out: LC50): 36.2 µM
- IC (TGI) (HCT-116; Homo sapiens, HCT-116, read-out: TGI): 13.1 µM
- Percent Growth (A549/ATCC; Log10 Concentration −4.0): −66%
- Percent Growth (A549/ATCC; Log10 Concentration −5.0): 83%
- Percent Growth (A549/ATCC; Log10 Concentration −6.0): 104%
- Percent Growth (A549/ATCC; Log10 Concentration −7.0): 93%
- Percent Growth (A549/ATCC; Log10 Concentration −8.0): 92%
- GI50 (A549/ATCC; Homo sapiens, A549): 16.7 µM
- CC50 (A549/ATCC; Homo sapiens, A549, read-out: LC50): 77.8 µM
- IC (TGI) (A549/ATCC; Homo sapiens, A549, read-out: TGI): 36.1 µM
- GI50 (SF-268; Homo sapiens, SF-268): 10.5 µM
- CC50 (SF-268; Homo sapiens, SF-268, read-out: LC50): 67.6 µM
- IC (TGI) (SF-268; Homo sapiens, SF-268, read-out: TGI): 26.7 µM
- Percent Growth (SF-268; SF-268, Log10 Concentration −4.0): −71%
- Percent Growth (SF-268; SF-268, Log10 Concentration −5.0): 52%
- Percent Growth (SF-268; SF-268, Log10 Concentration −6.0): 97%
- Percent Growth (SF-268; SF-268, Log10 Concentration −7.0): 98%
- Percent Growth (SF-268; SF-268, Log10 Concentration −8.0): 97%
- GI50 (NCI-H322M; Homo sapiens): 29.6 µM
- CC50 (NCI-H322M; Homo sapiens, read-out: LC50): > 100 µM
- IC (TGI) (NCI-H322M; Homo sapiens, read-out: TGI): > 100 µM
- Percent Growth (NCI-H322M; Log10 Concentration −4.0): 5%
- Percent Growth (NCI-H322M; Log10 Concentration −5.0): 90%
- Percent Growth (NCI-H322M; Log10 Concentration −6.0): 99%
- Percent Growth (NCI-H322M; Log10 Concentration −7.0): 95%
- Percent Growth (NCI-H322M; Log10 Concentration −8.0): 92%
- GI50 (UACC-257; Homo sapiens, UACC-257): 8.82 µM
- CC50 (UACC-257; Homo sapiens, UACC-257, read-out: LC50): 53.2 µM
- TGI (UACC-257; UACC-257): 2.26E−5
- Percent Growth (UACC-257; UACC-257, Log10 Concentration −4.0): −87%
- Percent Growth (UACC-257; UACC-257, Log10 Concentration −5.0): 47%
- Percent Growth (UACC-257; UACC-257, Log10 Concentration −6.0): 95%
- Percent Growth (UACC-257; UACC-257, Log10 Concentration −7.0): 90%
- Percent Growth (UACC-257; UACC-257, Log10 Concentration −8.0): 88%
- GI50 (SW-620; Homo sapiens, SW-620, SW-620): 4.35 µM
- CC50 (SW-620; Homo sapiens, SW-620, read-out: LC50): 64.9 µM
- IC (TGI) (SW-620; Homo sapiens, SW-620, read-out: TGI): 17.8 µM
- Percent Growth (SW-620; Log10 Concentration −4.0): −67%
- Percent Growth (SW-620; Log10 Concentration −5.0): 22%
- Percent Growth (SW-620; Log10 Concentration −6.0): 99%
- Percent Growth (SW-620; Log10 Concentration −7.0): 99%
- Percent Growth (SW-620; Log10 Concentration −8.0): 99%
- GI50 (NCI-H522; Homo sapiens, NCI-H522): 1.6 µM
- CC50 (NCI-H522; Homo sapiens, NCI-H522, read-out: LC50): 7.82 µM
- IC (TGI) (NCI-H522; Homo sapiens, NCI-H522, read-out: TGI): 3.54 µM
- Percent Growth (NCI-H522; NCI-H522, Log10 Concentration −4.0): −78%
- Percent Growth (NCI-H522; NCI-H522, Log10 Concentration −5.0): −66%
- Percent Growth (NCI-H522; NCI-H522, Log10 Concentration −6.0): 80%
- Percent Growth (NCI-H522; NCI-H522, Log10 Concentration −7.0): 102%
- Percent Growth (NCI-H522; NCI-H522, Log10 Concentration −8.0): 101%
- Percent Growth (HS 578T; Log10 Concentration −4.0): −5%
- Percent Growth (HS 578T; Log10 Concentration −5.0): 61%
- Percent Growth (HS 578T; Log10 Concentration −6.0): 94%
- Percent Growth (HS 578T; Log10 Concentration −7.0): 101%
- Percent Growth (HS 578T; Log10 Concentration −8.0): 95%
- GI50 (HS 578T; Homo sapiens, Hs-578T): 14.7 µM
- CC50 (HS 578T; Homo sapiens, Hs-578T, read-out: LC50): > 100 µM
- IC (TGI) (HS 578T; Homo sapiens, Hs-578T, read-out: TGI): 63.7 µM
- GI50 (TK-10; Homo sapiens, TK-10, TK-10): 3.83 µM
- CC50 (TK-10; Homo sapiens, TK-10, read-out: LC50): 37.9 to 50 µM
- IC (TGI) (TK-10; Homo sapiens, TK-10, read-out: TGI): 13.5 µM
- Percent Growth (TK-10; Log10 Concentration −4.0): −99%
- Percent Growth (TK-10; Log10 Concentration −5.0): 15%
- Percent Growth (TK-10; Log10 Concentration −6.0): 99%
- Percent Growth (TK-10; Log10 Concentration −7.0): 103%
- Percent Growth (TK-10; Log10 Concentration −8.0): 102%
- GI50 (OVCAR-5; Homo sapiens, OVCAR-5): 12.1 µM
- CC50 (OVCAR-5; Homo sapiens, OVCAR-5, read-out: LC50): 60.5 µM
- IC (TGI) (OVCAR-5; Homo sapiens, OVCAR-5, read-out: TGI): 27.1 µM
- Percent Growth (OVCAR-5; OVCAR-5, Log10 Concentration −4.0): −81%
- Percent Growth (OVCAR-5; OVCAR-5, Log10 Concentration −5.0): 62%
- Percent Growth (OVCAR-5; OVCAR-5, Log10 Concentration −6.0): 89%
- Percent Growth (OVCAR-5; OVCAR-5, Log10 Concentration −7.0): 84%
- Percent Growth (OVCAR-5; OVCAR-5, Log10 Concentration −8.0): 93%
- GI50 (SF-295; Homo sapiens, SF-295): 16.6 µM
- CC50 (SF-295; Homo sapiens, SF-295, read-out: LC50): 84.2 µM
- IC (TGI) (SF-295; Homo sapiens, SF-295, read-out: TGI): 37.4 µM
- Percent Growth (SF-295; SF-295, Log10 Concentration −4.0): −61%
- Percent Growth (SF-295; SF-295, Log10 Concentration −5.0): 81%
- Percent Growth (SF-295; SF-295, Log10 Concentration −6.0): 96%
- Percent Growth (SF-295; SF-295, Log10 Concentration −7.0): 91%
- Percent Growth (SF-295; SF-295, Log10 Concentration −8.0): 93%
- Percent Growth (HCT-15; HCT-15, Log10 Concentration −4.0): −88%
- Percent Growth (HCT-15; HCT-15, Log10 Concentration −5.0): 16%
- Percent Growth (HCT-15; HCT-15, Log10 Concentration −6.0): 8.9%
- Percent Growth (HCT-15; HCT-15, Log10 Concentration −7.0): 93%
- Percent Growth (HCT-15; HCT-15, Log10 Concentration −8.0): 93%
- GI50 (HCT-15; Homo sapiens, HCT-15): 3.43 µM
- CC50 (HCT-15; Homo sapiens, HCT-15, read-out: LC50): 43.1 µM
- IC (TGI) (HCT-15; Homo sapiens, HCT-15, read-out: TGI): 14.2 µM
- Percent Growth (BT-549; BT-549, Log10 Concentration −4.0): −97%
- Percent Growth (BT-549; BT-549, Log10 Concentration −5.0): 32%
- Percent Growth (BT-549; BT-549, Log10 Concentration −6.0): 93%
- Percent Growth (BT-549; BT-549, Log10 Concentration −7.0): 139%
- Percent Growth (BT-549; BT-549, Log10 Concentration −8.0): 102%
- GI50 (BT-549; Homo sapiens, BT-549): 5.14 µM
- CC50 (BT-549; Homo sapiens, BT-549, read-out: LC50): 43.1 µM
- IC (TGI) (BT-549; Homo sapiens, BT-549, read-out: TGI): 17.8 µM
- GI50 (OVCAR-3; Homo sapiens, OVCAR-3): 4.54 µM
- CC50 (OVCAR-3; Homo sapiens, OVCAR-3, read-out: LC50): 40.3 µM
- IC (TGI) (OVCAR-3; Homo sapiens, OVCAR-3, read-out: TGI): 15.7 µM
- Percent Growth (OVCAR-3; OVCAR-3, Log10 Concentration −4.0): −98%
- Percent Growth (OVCAR-3; OVCAR-3, Log10 Concentration −5.0): 24%
- Percent Growth (OVCAR-3; OVCAR-3, Log10 Concentration −6.0): 100%
- Percent Growth (OVCAR-3; OVCAR-3, Log10 Concentration −7.0): 107%
- Percent Growth (OVCAR-3; OVCAR-3, Log10 Concentration −8.0): 96%
- GI50 (T-47D; Homo sapiens, T47D): 3.52 µM
- CC50 (T-47D; Homo sapiens, T47D, read-out: LC50): 55.9 µM
- IC (TGI) (T-47D; Homo sapiens, T47D, read-out: TGI): 14.4 µM
- Percent Growth (T-47D; Log10 Concentration −4.0): −71%
- Percent Growth (T-47D; Log10 Concentration −5.0): 13%
- Percent Growth (T-47D; Log10 Concentration −6.0): 94%
- Percent Growth (T-47D; Log10 Concentration −7.0): 100%
- Percent Growth (T-47D; Log10 Concentration −8.0): 100%
- GI50 (SNB-75; Homo sapiens, SNB-75): 4.59 µM
- CC50 (SNB-75; Homo sapiens, SNB-75, read-out: LC50): 47 µM
- IC (TGI) (SNB-75; Homo sapiens, SNB-75, read-out: TGI): 20.1 µM
- Percent Growth (SNB-75; SNB-75, Log10 Concentration −4.0): −94%
- Percent Growth (SNB-75; SNB-75, Log10 Concentration −5.0): 41%
- Percent Growth (SNB-75; SNB-75, Log10 Concentration −6.0): 68%
- Percent Growth (SNB-75; SNB-75, Log10 Concentration −7.0): 69%
- Percent Growth (SNB-75; SNB-75, Log10 Concentration −8.0): 80%
